Reference: EP2998000A1, “COMBINATION THERAPY FOR CANCER” (priority 2014, dated 2016)

Key:
[1] = tested on: tumour cells; experiment: in vitro cytotoxicity screen of drugs co-incubated with L. welshimeri (tumour cell survival assay, MTS); settings: change of drug cytotoxicity on tumour cells after co-incubation with L. welshimeri, bacteria removed by filtration, Up/Down/NC
[2] = tested on: tumour cells; settings: for Cytotoxicity E. coli: change of drug cytotoxicity on tumour cells after co-incubation with E. coli, bacteria removed by filtration, MTS, Up/Down/NC
[3] = tested on: Subcutaneous flank CT26 tumours; experiment: murine model of intratumoural bacterial effects on chemotherapy
[4] = tested on: 4T1 Luc cells; experiment: tumour cell survival assay, drug co-incubated with E. coli, supernatant applied to 4T1 Luc cells; type: cell-based, mouse; settings: gemcitabine 10 µM co-incubated with E. coli at different cfu/ml, Figure 1b

Compound	Cytotoxicity E. coli [2]	further results
Nc1nc(Cl)nc2c1ncn2[C@H]1C[C@H](O)[C@@H](CO)O1 [Cladribine]	Down	Cytotoxicity L. welshimeri [1]: Down
CC1=CC(=O)c2ccccc2C1=O [Menadione]	Down	–
O=c1[nH]c(=O)n(C2CCCO2)cc1F (centres unmarked) [Tegafur]	increasing and Up	–
CC(=O)[C@]1(O)Cc2c(O)c3c(c(O)c2[C@@H](O[C@H]2C[C@H](N)[C@H](O)[C@H](C)O2)C1)C(=O)c1ccccc1C3=O [Idarubicin]	Down	–
Nc1ccn([C@@H]2O[C@H](CO)[C@@H](O)C2(F)F)c(=O)n1 [Gemcitabine]	decreasing and Down	tumour volume ([3]; gemcitabine + bacteria group compared with gemcitabine alone group, various time points, gemcitabine 60 mg/kg i.p., E. coli i.t.): Significantly increased; median survival post Day 0 ([3]; gemcitabine + bacteria group: E. coli i.t., gemcitabine 60 mg/kg i.p.): 17 days; median survival post Day 0 ([3]; gemcitabine alone group: PBS i.t., gemcitabine 60 mg/kg i.p.): 28 days; cytotoxicity after incubation with heat-inactivated lysate (or intact bacteria) ([2]; gemcitabine 10 µM, E. coli heat-inactivated at 95 °C, Figure 2): no reduction in cytotoxicity; efficacy (tumour cell survival) [4]: decreased
COc1cc([C@@H]2c3cc4c(cc3[C@@H](O[C@@H]3O[C@@H]5CO[C@@H](C)O[C@H]5[C@H](O)[C@H]3O)[C@H]3COC(=O)[C@H]23)OCO4)cc(OC)c1OP(=O)(O)O [Etoposide phosphate]	decreasing and Down	–
OC[C@H]1O[C@@H](n2cnc3c(S)ncnc32)C[C@@H]1O [6-Mercaptopurine-2’-deoxyriboside]	Up	–
Nc1ncnc2c1ncn2[C@@H]1O[C@H](CO)[C@@H](O)[C@@H]1O [Vidarabine]	decreasing and Down	–
CC1(C)CCC2=C(O1)c1ccccc1C(=O)C2=O [B-Lapachone]	Down	–
Nc1nc(F)nc2c1ncn2[C@@H]1O[C@H](COP(=O)(O)O)[C@@H](O)[C@@H]1O [Fludarabine de phosphate]	Up	Cytotoxicity L. welshimeri [1]: Up
COc1cccc2c1C(=O)c1c(O)c3c(c(O)c1C2=O)C[C@@](O)(C(=O)CO)C[C@@H]3O[C@H]1C[C@H](N)[C@H](O)[C@H](C)O1 [Doxorubicin]	Down	–
Nc1nc(=O)[nH]cc1F [5-fluorocytosine]	Up	–
O=C1c2c(O)ccc(O)c2C(=O)c2c(NCCNCCO)ccc(NCCNCCO)c21 [Mitoxantrone]	Down	–
COc1cccc2c1C(=O)c1c(O)c3c(c(O)c1C2=O)C[C@@](O)(C(C)=O)C[C@@H]3O[C@H]1C[C@H](N)[C@H](O)[C@H](C)O1 [Daunorubicin]	Down	Cytotoxicity L. welshimeri [1]: Down
NC(=O)c1cc(N2CC2)c([N+](=O)[O-])cc1[N+](=O)[O-] [CB1954]	Up	median survival post Day 0 ([3]; CB1954 + bacteria group: E. coli i.t., CB1954 20 mg/kg i.p.): 26 days; median survival post Day 0 ([3]; CB1954 alone group: PBS i.t., CB1954 20 mg/kg i.p.): 8 days; Cytotoxicity L. welshimeri [1]: Up
